Measurements reported in ChEMBL document CHEMBL2029295, “Discovery and optimization of a potent and selective triazolopyridinone series of c-Met inhibitors” (Bioorg Med Chem Lett, 2012).
Values after ≈ are worked out from the molar mass of the structure shown.

Key:
[1] = Solubility of the compound in 0.1N HCl; assay type: physicochemical
[2] = Solubility of the compound in phosphate buffered saline; assay type: physicochemical
[3] = Solubility of the compound in simulated intestinal fluid; assay type: physicochemical
[4] = biological target: Vascular endothelial growth factor receptor 2 (Homo sapiens) (UniProt P35968); experiment: Inhibition of VEGFR2 assessed as remaining activity at 1 uM relative to control
Vascular endothelial growth factor receptor 2 (Homo sapiens), sequence (P35968 whole entry): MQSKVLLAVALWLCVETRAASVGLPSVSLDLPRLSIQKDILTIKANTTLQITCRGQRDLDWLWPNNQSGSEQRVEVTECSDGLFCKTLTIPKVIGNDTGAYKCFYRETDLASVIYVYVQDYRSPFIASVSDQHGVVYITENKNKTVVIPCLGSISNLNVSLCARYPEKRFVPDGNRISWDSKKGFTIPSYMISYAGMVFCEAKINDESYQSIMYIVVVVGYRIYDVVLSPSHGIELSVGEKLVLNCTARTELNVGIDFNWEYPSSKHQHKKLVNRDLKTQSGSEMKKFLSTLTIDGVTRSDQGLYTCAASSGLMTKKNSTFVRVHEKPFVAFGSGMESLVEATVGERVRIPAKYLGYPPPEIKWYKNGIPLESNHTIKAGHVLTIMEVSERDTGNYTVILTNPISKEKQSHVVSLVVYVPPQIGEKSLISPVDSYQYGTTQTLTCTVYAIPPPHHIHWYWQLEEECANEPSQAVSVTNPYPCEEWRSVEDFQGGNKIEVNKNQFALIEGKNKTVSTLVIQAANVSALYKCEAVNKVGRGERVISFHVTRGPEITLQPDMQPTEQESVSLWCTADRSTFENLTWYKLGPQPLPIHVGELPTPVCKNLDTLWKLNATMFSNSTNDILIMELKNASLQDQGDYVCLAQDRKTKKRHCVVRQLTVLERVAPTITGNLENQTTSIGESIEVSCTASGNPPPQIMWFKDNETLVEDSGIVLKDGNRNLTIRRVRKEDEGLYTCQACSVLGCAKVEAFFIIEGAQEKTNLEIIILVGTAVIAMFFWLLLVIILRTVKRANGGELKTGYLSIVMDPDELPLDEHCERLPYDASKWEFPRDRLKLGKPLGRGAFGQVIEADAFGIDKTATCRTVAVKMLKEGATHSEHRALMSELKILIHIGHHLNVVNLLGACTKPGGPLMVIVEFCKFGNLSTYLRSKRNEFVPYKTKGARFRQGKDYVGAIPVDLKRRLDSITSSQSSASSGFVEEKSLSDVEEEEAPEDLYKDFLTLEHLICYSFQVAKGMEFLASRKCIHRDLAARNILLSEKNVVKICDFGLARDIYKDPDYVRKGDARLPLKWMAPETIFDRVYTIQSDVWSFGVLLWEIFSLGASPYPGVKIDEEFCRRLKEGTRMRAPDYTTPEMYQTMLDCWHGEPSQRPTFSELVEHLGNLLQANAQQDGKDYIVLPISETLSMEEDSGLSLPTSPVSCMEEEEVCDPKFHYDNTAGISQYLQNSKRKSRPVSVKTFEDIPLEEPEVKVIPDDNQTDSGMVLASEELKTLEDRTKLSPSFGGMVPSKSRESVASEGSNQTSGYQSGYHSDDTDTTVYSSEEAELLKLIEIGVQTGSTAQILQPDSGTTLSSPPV

[5] = biological target: Mast/stem cell growth factor receptor Kit (Homo sapiens) (UniProt P10721); experiment: Inhibition of KIT assessed as remaining activity at 1 uM relative to control
Mast/stem cell growth factor receptor Kit (Homo sapiens), sequence (P10721 whole entry): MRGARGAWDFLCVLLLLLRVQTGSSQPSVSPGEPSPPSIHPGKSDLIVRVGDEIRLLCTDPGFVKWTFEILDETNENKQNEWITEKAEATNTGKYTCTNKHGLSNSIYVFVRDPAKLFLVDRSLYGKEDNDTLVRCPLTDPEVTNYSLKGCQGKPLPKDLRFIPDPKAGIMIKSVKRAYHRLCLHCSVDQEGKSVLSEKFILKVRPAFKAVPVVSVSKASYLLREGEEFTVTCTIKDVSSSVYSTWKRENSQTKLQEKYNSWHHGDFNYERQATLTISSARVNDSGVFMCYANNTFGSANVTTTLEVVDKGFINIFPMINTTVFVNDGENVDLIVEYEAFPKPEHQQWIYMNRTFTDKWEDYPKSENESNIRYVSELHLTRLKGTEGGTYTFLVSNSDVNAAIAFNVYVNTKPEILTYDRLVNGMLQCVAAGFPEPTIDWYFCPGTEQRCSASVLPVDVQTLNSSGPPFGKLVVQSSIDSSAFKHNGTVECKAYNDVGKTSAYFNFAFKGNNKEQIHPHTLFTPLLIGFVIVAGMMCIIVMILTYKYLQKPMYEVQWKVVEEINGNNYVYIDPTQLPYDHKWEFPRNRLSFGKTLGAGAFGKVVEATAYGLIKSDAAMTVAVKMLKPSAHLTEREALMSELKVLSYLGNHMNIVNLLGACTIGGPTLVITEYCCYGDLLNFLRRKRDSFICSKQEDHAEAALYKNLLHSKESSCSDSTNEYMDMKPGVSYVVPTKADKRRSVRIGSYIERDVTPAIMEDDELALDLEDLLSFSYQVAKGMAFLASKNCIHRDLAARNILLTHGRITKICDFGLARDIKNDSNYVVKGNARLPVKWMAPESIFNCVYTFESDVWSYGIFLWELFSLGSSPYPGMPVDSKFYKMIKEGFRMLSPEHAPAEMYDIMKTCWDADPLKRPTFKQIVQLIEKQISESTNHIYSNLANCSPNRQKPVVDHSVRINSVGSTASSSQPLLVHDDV

[6] = biological target: Platelet-derived growth factor receptor beta (Homo sapiens) (UniProt P09619); experiment: Inhibition of PDGFRB assessed as remaining activity at 1 uM relative to control
Platelet-derived growth factor receptor beta (Homo sapiens), sequence (P09619 whole entry): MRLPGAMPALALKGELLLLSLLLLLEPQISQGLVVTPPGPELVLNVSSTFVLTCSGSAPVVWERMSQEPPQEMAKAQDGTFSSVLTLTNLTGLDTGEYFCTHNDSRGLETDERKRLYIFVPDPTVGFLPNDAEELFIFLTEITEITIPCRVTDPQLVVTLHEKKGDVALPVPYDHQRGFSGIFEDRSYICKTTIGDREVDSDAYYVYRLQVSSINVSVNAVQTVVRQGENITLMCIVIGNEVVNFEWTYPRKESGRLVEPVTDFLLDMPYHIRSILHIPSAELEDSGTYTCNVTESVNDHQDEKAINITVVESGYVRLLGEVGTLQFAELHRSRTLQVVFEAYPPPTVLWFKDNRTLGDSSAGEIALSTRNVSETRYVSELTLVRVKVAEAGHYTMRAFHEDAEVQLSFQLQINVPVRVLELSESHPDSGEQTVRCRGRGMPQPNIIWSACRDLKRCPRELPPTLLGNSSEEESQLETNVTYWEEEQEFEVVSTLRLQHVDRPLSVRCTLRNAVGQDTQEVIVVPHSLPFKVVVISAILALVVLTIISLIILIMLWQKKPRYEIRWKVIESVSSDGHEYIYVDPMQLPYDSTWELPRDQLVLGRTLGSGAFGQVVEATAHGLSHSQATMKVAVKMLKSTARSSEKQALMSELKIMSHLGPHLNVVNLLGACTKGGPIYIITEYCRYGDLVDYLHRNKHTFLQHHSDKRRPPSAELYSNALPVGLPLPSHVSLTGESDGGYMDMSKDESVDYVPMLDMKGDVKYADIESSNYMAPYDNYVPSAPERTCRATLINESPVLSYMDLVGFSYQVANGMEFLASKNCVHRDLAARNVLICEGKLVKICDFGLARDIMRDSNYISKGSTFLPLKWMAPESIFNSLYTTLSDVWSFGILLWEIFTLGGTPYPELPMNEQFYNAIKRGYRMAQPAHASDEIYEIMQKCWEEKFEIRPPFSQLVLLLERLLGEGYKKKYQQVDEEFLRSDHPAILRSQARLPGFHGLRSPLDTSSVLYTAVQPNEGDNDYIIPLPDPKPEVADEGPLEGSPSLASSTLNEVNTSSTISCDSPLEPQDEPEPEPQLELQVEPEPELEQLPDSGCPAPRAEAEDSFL

[7] = Intrinsic clearance in rat liver microsomes; assay type: ADME, Microsome; conditions: read-out: CLH
[8] = Intrinsic clearance in mouse liver microsomes; assay type: ADME, Microsome; conditions: read-out: CLH
[9] = Intrinsic clearance in human liver microsomes; assay type: ADME, Microsome; conditions: read-out: CLH
[10] = Plasma protein binding in rat by equilibrium dialysis; assay type: ADME, cell-free; conditions: read-out: PPB (converted)
[11] = Plasma protein binding in mouse by equilibrium dialysis; assay type: ADME, cell-free; conditions: read-out: PPB (converted)
[12] = Plasma protein binding in human by equilibrium dialysis; assay type: ADME, cell-free; conditions: read-out: PPB (converted)
[13] = Clearance in Sprague-Dawley rat at 0.25 mg/kg, iv; assay type: ADME, organism-based; design: dose 0.25 mg/kg, route intravenous; conditions: in vivo
[14] = Volume of distribution at steady state in Sprague-Dawley rat at 0.25 mg/kg, iv; assay type: ADME, organism-based; design: dose 0.25 mg/kg, route intravenous; conditions: in vivo, read-out: Vdss
[15] = Half life in Sprague-Dawley rat at 0.25 mg/kg, iv; assay type: ADME, organism-based; design: dose 0.25 mg/kg, route intravenous; conditions: in vivo
[16] = AUC (0 to infinity) in Sprague-Dawley rat at 2 mg/kg, po; assay type: ADME, organism-based; design: time infinity, dose 2 mg/kg, route oral; conditions: plasma
[17] = Oral bioavailability in Sprague-Dawley rat at 2 mg/kg; assay type: ADME, organism-based; conditions: in vivo
Mus musculus = experiment: Inhibition of HGF-induced phosphorylation of c-Met in BALB/c mice mouse liver at 10 mg/kg, po administered 1 to 24 hrs before HGF-induction measured after 5 mins; assay type: functional
Plasma = experiment: Plasma concentration in BALB/c mouse at 10 mg/kg, po; assay type: ADME, organism-based; design: dose 10 mg/kg, route oral; conditions: in vivo

Row | Structure (SMILES) | solubility [1] | solubility [2] | solubility [3] | Activity [4] | Activity [5] | Activity [6] | microsomal CLint [7] | microsomal CLint [8] | microsomal CLint [9] | fraction unbound [10] | fraction unbound [11] | fraction unbound [12] | clearance [13] | Vd [14] | half-life [15] | AUC(0-inf) [16] | bioavailability [17] | concentration (Plasma) | inhibition in vivo at 10 mg/kg (Mus musculus)
1 | Cc1cc(-n2ccc3nnn(Cc4ccc5ncccc5c4)c3c2=O)sn1 | 80.1 µg/mL (≈ 214 µM) | < 1 µg/mL | 4.8 µg/mL (≈ 12.8 µM) |  |  |  |  |  |  |  |  |  |  |  |  |  |  |  | 
2 | O=C1c2c(nnn2Cc2ccc3ncccc3c2)CCN1c1ccccc1 | ≥ 200 µg/mL | ≥ 200 µg/mL | 60.4 µg/mL (≈ 170 µM) |  |  |  |  |  |  |  |  |  |  |  |  |  |  |  | 
3 | COCCOc1cnc2ccc([C@H](C)n3nnc4ccn(-c5ccc(F)c(F)c5)c(=O)c43)cc2c1 | 128 µg/mL (≈ 267 µM) | 11.1 µg/mL (≈ 23.2 µM) | 37.7 µg/mL (≈ 79 µM) |  |  |  | 105 µL/min/mg | 98 µL/min/mg | 120 µL/min/mg | 0.02 | 0.044 | 0.045 | 18.8 mL/min/kg | 2.38 L/kg | 1.81 h | 638 ng·h/mL | 36% |  | 
4 | Cc1cc(N2CCc3nnn(Cc4ccc5ncccc5c4)c3C2=O)sn1 | 43.2 µg/mL (≈ 115 µM) | 2.2 µg/mL (≈ 5.84 µM) | < 1 µg/mL |  |  |  |  |  |  |  |  |  |  |  |  |  |  |  | 

The next lines start with results.

Row | solubility [1] | solubility [2] | solubility [3] | Activity [4] | Activity [5] | Activity [6] | microsomal CLint [7] | microsomal CLint [8] | microsomal CLint [9] | fraction unbound [10] | fraction unbound [11] | fraction unbound [12] | clearance [13] | Vd [14] | half-life [15] | AUC(0-inf) [16] | bioavailability [17] | concentration (Plasma) | Structure (SMILES) | inhibition in vivo at 10 mg/kg (Mus musculus)
5 | 13.7 µg/mL (≈ 30.5 µM) | 2.5 µg/mL (≈ 5.57 µM) | 9.8 µg/mL (≈ 21.9 µM) |  |  |  |  |  |  |  |  |  |  |  |  |  |  |  | COCCOc1cnc2ccc(Cn3nnc4ccn(-c5cc(C)ns5)c(=O)c43)cc2c1 | 
6 | 37 µg/mL (≈ 80 µM) | 8.7 µg/mL (≈ 18.8 µM) | 39.7 µg/mL (≈ 85.8 µM) | 34% | 26% | 10% | 89 µL/min/mg | 68 µL/min/mg | 84 µL/min/mg | 0.018 | 0.027 | 0.012 | 9.32 mL/min/kg | 2.53 L/kg | 3.4 h | 1560 ng·h/mL | 43% | < 200 nM | COCCOc1cnc2ccc([C@H](C)n3nnc4ccn(-c5cc(C)ns5)c(=O)c43)cc2c1 | 89%
7 | ≥ 200 µg/mL | 4.5 µg/mL (≈ 11.6 µM) | 22.4 µg/mL (≈ 57.7 µM) |  |  |  |  |  |  |  |  |  |  |  |  |  |  |  | Cc1cc(-n2ccc3nnn([C@@H](C)c4ccc5ncccc5c4)c3c2=O)sn1 | 
